Source: patent US12226405B2, “Compounds and compositions for inhibiting the activity of HIF2-alpha and their methods of use” (Novartis AG, priority 2020, dated 2025)
Read-outs that look alike come from different tables or passages of the source.

What was measured:
[1] = biological target: T1, HIF2α PAS-B domain (236-350, biotinylated on the N-terminus) (Homo sapiens (Human), UniProt Q99814); experiment: biochemical
Method: (§1) The assay buffer contained 50 mM Tris-HCl pH7 (Sigma), 20 mM NaCl (Fluka), 0.02% BSA (Sigma), 0.005% Triton X-100 (Pierce) and 1 mM DTT (Fluka). After a 30 min incubation period, 5 μL Streptavidin PVT SPA Beads (Perkin Elmer) at 1.2 mg/mL, diluted in the buffer, were added.

[2] = test system: HIF2α-regulated expression of the endogenous target gene hEGLN3 in 786-O cells; experiment: Cellular iScript assay for HIF2α (quantitative RT-PCR of hEGLN3); format: cell-based, human; details: Homo sapiens, 786-0, 48 hours incubation
Procedure, shortened: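 786-O cells were exposed to eleven 2-fold compound dilutions for 48 h at 37° C. Lysates underwent one-step TaqMan qRT-PCR for hEGLN3 with beta-actin as reference; 2^(−ΔΔCt) versus DMSO, as % of control, was fit with a four-parameter model to give IC50.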

[3] = test system: HIF2α-dependent transcription in 786-O-HRE-Luc cells; experiment: In vitro cellular hypoxia response element (HRE) reporter gene assay (RGA) for HIF2α; format: cell-based, human; details: Homo sapiens, 24 hours incubation
Procedure, shortened: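 Renal carcinoma cells carrying a 4×HRE-driven PEST-destabilised firefly luciferase were treated a day after seeding with eleven 2-fold compound dilutions (0.1% DMSO) for 24 h at 37° C. BrightGlo luminescence, background-subtracted and expressed as % of DMSO control, was fitted four-parametrically for IC50.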

[4] = biological target: T1, HIF2α PAS-B domain (236-350, biotinylated on the N-terminus)
Method: as §1

T1 sequence (Q99814 236-350): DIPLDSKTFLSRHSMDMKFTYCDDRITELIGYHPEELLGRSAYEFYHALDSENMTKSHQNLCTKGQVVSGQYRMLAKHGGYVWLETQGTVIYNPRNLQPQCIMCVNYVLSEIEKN

## FC(F)OC1=CC(C(F)(F)F)=CN2CC3(CCCc4cnccc43)N=C12 (racemic) [Example 93, rac-8-(difluoromethoxy)-6-(trifluoromethyl)-7′,8′-dihydro-3H,6′H-spiro[imidazo[1,2-a]pyridine-2,5′-isoquinoline]]
[1]
  IC50: 12 nM
[2]
  IC50: 178 nM

## FC(F)OC1=CC(C(F)(F)F)=CN2C[C@]3(CCOc4cc(C(F)(F)F)ccc43)N=C12 [(R)-8′-(difluoromethoxy)-6′,7-bis(trifluoromethyl)-3′H-spiro[chroman-4,2′-imidazo[1,2-a]pyridine]]
[1]
  IC50: > 10000 nM

## FC(F)OC1=CC(C(F)(F)F)=CN2C[C@@]3(CCCc4cc(C(F)(F)F)ccc43)N=C12 [Example 86, (S)-8-(difluoromethoxy)-6,6′-bis(trifluoromethyl)-3′,4′-dihydro-2′H,3H-spiro[imidazo[1,2-a]pyridine-2,1′-naphthalene]]
[3]
  IC50: 179 nM
[4]
  IC50: 13 nM
[2]
  IC50: 64 nM

## FC(F)OC1=CC(C(F)(F)F)=CN2C[C@@]3(CCCc4c(Cl)cccc43)N=C12 [Example 88, (S)-5′-chloro-8-(difluoromethoxy)-6-(trifluoromethyl)-3′,4′-dihydro-2′H,3H-spiro[imidazo[1,2-a]pyridine-2,1′-naphthalene]]
[3]
  IC50: 142 nM
[4]
  IC50: ≤ 4 nM
[2]
  IC50: 32 nM

## Fc1c(Br)ccc2c1CCC[C@@]21CN2C=C(Cl)C=C(OC(F)F)C2=N1 [Example 89, (S)-6′-bromo-6-chloro-8-(difluoromethoxy)-5′-fluoro-3′,4′-dihydro-2′H,3H-spiro[imidazo[1,2-a]pyridine-2,1′-naphthalene]]
[3]
  IC50: 220 nM
[4]
  IC50: ≤ 7 nM
[2]
  IC50: 34 nM

## N#CC1=CN2C[C@@]3(CCCc4c3ccc(F)c4F)N=C2C(OC(F)F)=C1 [Example 91, (S)-8-(difluoromethoxy)-5′,6′-difluoro-3′,4′-dihydro-2′H,3H-spiro[imidazo[1,2-a]pyridine-2,1′-naphthalene]-6-carbonitrile]
[3]
  IC50: 262 nM
[4]
  IC50: 5 nM
[2]
  IC50: 30 nM

## N#CC1=CN2C[C@@]3(CCC(F)(F)c4c3ccc(Br)c4F)N=C2C(OC(F)F)=C1 [Example 92, (S)-6′-bromo-8-(difluoromethoxy)-4′,4′,5′-trifluoro-3′,4′-dihydro-2′H,3H-spiro[imidazo[1,2-a]pyridine-2,1′-naphthalene]-6-carbonitrile]
[3]
  IC50: 626 nM
[4]
  IC50: 29 nM
[2]
  IC50: 153 nM

## N#CC1=CN2C[C@@]3(CCCc4c3ccnc4Cl)N=C2C(OC(F)F)=C1 [Example 94, (S)-1′-chloro-8-(difluoromethoxy)-7′,8′-dihydro-3H,6′H-spiro[imidazo[1,2-a]pyridine-2,5′-isoquinoline]-6-carbonitrile]
[3]
  IC50: 2260 nM
[4]
  IC50: 33 nM
[2]
  IC50: 197 nM

## FCOC1=CC(C(F)(F)F)=CN2C[C@@]3(CCOc4c(Cl)cccc43)N=C12 [Example 95, (S)-8-chloro-8′-(fluoromethoxy)-6′-(trifluoromethyl)-3′H-spiro[chromane-4,2′-imidazo[1,2-a]pyridine]]
[3]
  IC50: 271 nM
[4]
  IC50: 23 nM
[2]
  IC50: 181 nM

## N#Cc1ccc2c(c1Cl)OCC[C@@]21CN2C=C(C(F)(F)F)C=C(OC(F)F)C2=N1 [Example 96, (S)-8-chloro-8′-(difluoromethoxy)-6′-(trifluoromethyl)-3′H-spiro[chromane-4,2′-imidazo[1,2-a]pyridine]-7-carbonitrile]
[3]
  IC50: 518 nM
[4]
  IC50: 32 nM
[2]
  IC50: 199 nM

## Fc1c(Cl)ccc2c1OC[C@H](F)[C@@]21CN2C=C(C(F)(F)F)C=C(OC(F)F)C2=N1 [Example 97, (3R,4S)-7-chloro-8′-(difluoromethoxy)-3,8-difluoro-6′-(trifluoromethyl)-3′H-spiro[chromane-4,2′-imidazo[1,2-a]pyridine]]
[3]
  IC50: 193 nM
[4]
  IC50: 11 nM
[2]
  IC50: 57 nM

## Fc1ccc2c(c1F)OC[C@H](F)[C@@]21CN2C=C(C(F)(F)F)C=C(OC(F)F)C2=N1 [Example 98, (3R,4S)-8′-(difluoromethoxy)-3,7,8-trifluoro-6′-(trifluoromethyl)-3′H-spiro[chromane-4,2′-imidazo[1,2-a]pyridine]]
[3]
  IC50: 120 nM
[4]
  IC50: 17 nM
[2]
  IC50: 104 nM

## CSc1ccc2c(c1F)OCC[C@@]21CN2C=C(C(F)(F)F)C=C(OC(F)F)C2=N1 [Example 99, (S)-8′-(difluoromethoxy)-8-fluoro-7-(methylthio)-6′-(trifluoromethyl)-3′H-spiro[chromane-4,2′-imidazo[1,2-a]pyridine]]
[3]
  IC50: 286 nM
[4]
  IC50: 10 nM
[2]
  IC50: 71 nM

## FC(F)OC1=CC(C(F)(F)F)=CN2C[C@@]3(CCOc4c3ccc(Br)c4Cl)N=C12 [Example 100, (S)-7-bromo-8-chloro-8′-(difluoromethoxy)-6′-(trifluoromethyl)-3′H-spiro[chromane-4,2′-imidazo[1,2-a]pyridine]]
[3]
  IC50: 106 nM
[4]
  IC50: 4 nM
[2]
  IC50: 63 nM

## FC(F)OC1=CC(C(F)(F)F)=CN2C[C@@]3(CCOc4c3ccc(Br)c4Br)N=C12 [Example 102, (S)-7,8-dibromo-8′-(difluoromethoxy)-6′-(trifluoromethyl)-3′ H-spiro[chromane-4,2′-imidazo[1,2-a]pyridine]]
[3]
  IC50: 66 nM
[4]
  IC50: 11 nM
[2]
  IC50: 48 nM

## COc1ccc2c(c1F)OCC[C@@]21CN2C=C(C(F)(F)F)C=C(OC(F)F)C2=N1 [Example 103, (S)-8′-(difluoromethoxy)-8-fluoro-7-methoxy-6′-(trifluoromethyl)-3′H-spiro[chromane-4,2′-imidazo[1,2-a]pyridine]]
[3]
  IC50: 417 nM
[4]
  IC50: 42 nM
[2]
  IC50: 109 nM

## FC(F)OC1=CC(C(F)(F)F)=CN2C[C@@]3(CCOc4c(C(F)(F)F)cccc43)N=C12 [Example 104, (S)-8′-(difluoromethoxy)-6′,8-bis(trifluoromethyl)-3′H-spiro[chromane-4,2′-imidazo[1,2-a]pyridine]]
[3]
  IC50: 624 nM
[4]
  IC50: ≤ 5 nM
[2]
  IC50: 118 nM

## Fc1c(OC(F)(F)F)ccc2c1OCC[C@@]21CN2C=C(C(F)(F)F)C=C(OC(F)F)C2=N1 [Example 105, (S)-8′-(difluoromethoxy)-8-fluoro-7-(trifluoromethoxy)-6′-(trifluoromethyl)-3′H-spiro[chromane-4,2′-imidazo[1,2-a]pyridine]]
[3]
  IC50: 248 nM
[4]
  IC50: 21 nM
[2]
  IC50: 183 nM

## Fc1c(SC(F)F)ccc2c1OCC[C@@]21CN2C=C(C(F)(F)F)C=C(OC(F)F)C2=N1 [Example 106, (S)-8′-(difluoromethoxy)-7-((difluoromethyl)thio)-8-fluoro-6′-(trifluoromethyl)-3′H-spiro[chromane-4,2′-imidazo[1,2-a]pyridine]]
[3]
  IC50: 148 nM
[4]
  IC50: 10 nM
[2]
  IC50: 81 nM

## FC(F)OC1=CC(C(F)(F)F)=CN2C[C@@]3(CCOc4c(Br)cccc43)N=C12 [Example 107, (S)-8-bromo-8′-(difluoromethoxy)-6′-(trifluoromethyl)-3′H-spiro[chromane-4,2′-imidazo[1,2-a]pyridine]]
[3]
  IC50: 807 nM
[4]
  IC50: 7 nM
[2]
  IC50: 189 nM

## [2H]C1C([2H])([2H])Sc2c(F)cccc2[C@]12CN1C=C(C#N)C=C(OC(F)F)C1=N2 (stereo partly drawn) [Example 109, (2S)-8-(difluoromethoxy)-8′-fluoro-3H-spiro[imidazo[1,2-a]pyridine-2,4′-thiochromane]-6-carbonitrile-2′,2′,3′-d3]
[3]
  IC50: 90 nM
[4]
  IC50: 4 nM
[2]
  IC50: 42 nM

## N#Cc1ccc2c(c1F)SCC[C@@]21CN2C=C(C(F)(F)F)C=C(OC(F)F)C2=N1 [Example 111, (S)-8-(difluoromethoxy)-8′-fluoro-6-(trifluoromethyl)-3H-spiro[imidazo[1,2-a]pyridine-2,4′-thiochromane]-7′-carbonitrile]
[3]
  IC50: 100 nM
[4]
  IC50: 9 nM
[2]
  IC50: 43 nM

## N#CC1=CN2C[C@@]3(CCSc4c3ccc(F)c4F)N=C2C(OC(F)F)=C1 [Example 112, (S)-8-(difluoromethoxy)-7′,8′-difluoro-3H-spiro[imidazo[1,2-a]pyridine-2,4′-thiochromane]-6-carbonitrile]
[3]
  IC50: 116 nM
[4]
  IC50: 7 nM
[2]
  IC50: 41 nM

## FCOC1=CC(C(F)(F)F)=CN2C[C@@]3(CCSc4c3cnc(C(F)(F)F)c4F)N=C12 [Example 114, (S)-8′-fluoro-8-(fluoromethoxy)-6,7′-bis(trifluoromethyl)-2′,3′-dihydro-3H-spiro[imidazo[1,2-a]pyridine-2,4′-thiopyrano[3,2-c]pyridine]]
[3]
  IC50: 356 nM
[4]
  IC50: 42 nM
[2]
  IC50: 84 nM

## Fc1ccc2c(c1F)OCCC[C@@]21CN2C=C(C(F)(F)F)C=C(OC(F)F)C2=N1 [Example 117, (S)-8′-(difluoromethoxy)-8,9-difluoro-6′-(trifluoromethyl)-3,4-dihydro-2H,3′H-spiro[benzo[b]oxepine-5,2′-imidazo[1,2-a]pyridine]]
[3]
  IC50: 281 nM
[4]
  IC50: ≤ 4 nM
[2]
  IC50: 24 nM

## Fc1c(Cl)ccc2c1COCC[C@@]21CN2C=C(C(F)(F)F)C=C(OC(F)F)C2=N1 [Example 119, (S)-8-chloro-8′-(difluoromethoxy)-9-fluoro-6′-(trifluoromethyl)-3,4-dihydro-1H,3′H-spiro[benzo[c]oxepine-5,2′-imidazo[1,2-a]pyridine]]
[3]
  IC50: 292 nM
[4]
  IC50: 19 nM
[2]
  IC50: 97 nM
